According to patent US20240278234A1, “SAMPLE PREPARATION” (priority 2021, published 2024):

System: SARS-CoV-2 target genes E gene, RdRP gene and human RP (positive control)
Assay: RT-qPCR amplification (YouSeq E-RdRP kit) in the presence of lysis agents: test for PCR inhibition
Assay type: biochemical
Settings: for qPCR amplification curves, FIG. 4: 2%-0.2% agent; for qPCR amplification curves, FIG. 5: 0.2% and 0.06% agent; for inhibition of amplification (summary of FIGS. 4 and 5): agents tested at 2%, 0.6%, 0.2% and 0.02%, 45 cycles
Procedure: An E-RdRP kit from YouSeq was used, which is designed to detect SARS-CoV-2, and includes a positive control containing the SARS-CoV-2 target genes E gene, RdRP gene and human RP (as an internal control). Each reaction included: • 10 μL MasterMix • 1 μL Primer/Probe • 3 μL Water • 1 μL Template or Water • 5 μL Buffers
PCR was carried out under the following conditions: • 55 C for 10 mins RT Step • 95 C for 3 mins denaturation • x45 Cycles • 95 C for 15 secs • 60 C for 60 secs
Amplification was monitored using a Quantstudio Q5.

## [H]/N=C(\N/C(=N/[H])NCCCCCCNC(=N)NC(=N)Nc1ccc(Cl)cc1)Nc1ccc(Cl)cc1 [chlorhexidine]
  qPCR amplification curves, FIG. 4: Clear PCR inhibitions
  qPCR amplification curves, FIG. 5: no significant inhibition
  inhibition of amplification (summary of FIGS. 4 and 5): inhibit at higher concentrations

## CC(C)=CCCC(C)=CC=O [citral]
  qPCR amplification curves, FIG. 4: clear inhibitory effect between 2%-0.2%
  qPCR amplification curves, FIG. 5: no significant inhibition
  inhibition of amplification (summary of FIGS. 4 and 5): inhibit at higher concentrations
